Laboratory results as given in PubChem BioAssay (NCI).
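How tested: cells in 96-well plates exposed to compound for 48 hours at five concentrations. TGI is the concentration that stops growth completely.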

Legend:
Experiment in all cases: NCI-60 cell line screen, 48 h
786-0 renal = tested on: 786-0 renal
A549 NSCLC = tested on: A549 NSCLC
ACHN renal = tested on: ACHN renal
BT-549 breast = tested on: BT-549 breast
CAKI-1 renal = tested on: CAKI-1 renal
CCRF-CEM leukemia = tested on: CCRF-CEM leukemia
COLO 205 colon = tested on: COLO 205 colon
DU-145 prostate = tested on: DU-145 prostate
EKVX NSCLC = tested on: EKVX NSCLC
HCC-2998 colon = tested on: HCC-2998 colon
HCT-116 colon = tested on: HCT-116 colon
HCT-15 colon = tested on: HCT-15 colon
HL-60(TB) leukemia = tested on: HL-60(TB) leukemia
HOP-62 NSCLC = tested on: HOP-62 NSCLC
HOP-92 NSCLC = tested on: HOP-92 NSCLC
HS 578T breast = tested on: HS 578T breast
HT29 colon = tested on: HT29 colon
IGROV1 ovarian = tested on: IGROV1 ovarian
K-562 leukemia = tested on: K-562 leukemia
KM12 colon = tested on: KM12 colon
LOX IMVI melanoma = tested on: LOX IMVI melanoma
M14 melanoma = tested on: M14 melanoma
MALME-3M melanoma = tested on: MALME-3M melanoma
MCF7 breast = tested on: MCF7 breast
MDA-MB-231 breast = tested on: MDA-MB-231 breast
MDA-MB-435 = tested on: MDA-MB-435
MDA-N = tested on: MDA-N
MOLT-4 leukemia = tested on: MOLT-4 leukemia
NCI-H226 lung = tested on: NCI-H226 lung
NCI-H23 lung = tested on: NCI-H23 lung
NCI-H460 lung = tested on: NCI-H460 lung
NCI-H522 lung = tested on: NCI-H522 lung
NCI/ADR-RES ovarian = tested on: NCI/ADR-RES ovarian
OVCAR-3 ovarian = tested on: OVCAR-3 ovarian
OVCAR-4 ovarian = tested on: OVCAR-4 ovarian
OVCAR-5 ovarian = tested on: OVCAR-5 ovarian
OVCAR-8 ovarian = tested on: OVCAR-8 ovarian
PC-3 prostate = tested on: PC-3 prostate
RPMI-8226 leukemia = tested on: RPMI-8226 leukemia
RXF 393 renal = tested on: RXF 393 renal
SF-268 CNS = tested on: SF-268 CNS
SF-295 CNS = tested on: SF-295 CNS
SF-539 CNS = tested on: SF-539 CNS
SK-MEL-2 melanoma = tested on: SK-MEL-2 melanoma
SK-MEL-28 melanoma = tested on: SK-MEL-28 melanoma
SK-MEL-5 melanoma = tested on: SK-MEL-5 melanoma
SK-OV-3 ovarian = tested on: SK-OV-3 ovarian
SN12C renal = tested on: SN12C renal
SNB-19 CNS = tested on: SNB-19 CNS
SNB-75 CNS = tested on: SNB-75 CNS
SR leukemia = tested on: SR leukemia
SW-620 colon = tested on: SW-620 colon
T-47D breast = tested on: T-47D breast
TK-10 renal = tested on: TK-10 renal
U251 CNS = tested on: U251 CNS
UACC-257 melanoma = tested on: UACC-257 melanoma
UACC-62 melanoma = tested on: UACC-62 melanoma
UO-31 renal = tested on: UO-31 renal
A498 renal = tested on: A498 renal

In the case of `C[C@]12CCC(=O)C=C1CC[C@@H]1[C@@H]2CC[C@]2(C)C(=O)/C(=C/c3ccncc3)C[C@@H]12`, the TGI (786-0 renal) is reported as 31.3 µM, the TGI (A549 NSCLC) is reported as 46.5 µM and the TGI (ACHN renal) is reported as 30.5 µM. For the same compound, the TGI (BT-549 breast) was 42.5 µM, the TGI (CAKI-1 renal) was 43.7 µM and the TGI (CCRF-CEM leukemia) was > 100 µM. It also gave a TGI (COLO 205 colon) of 27.4 µM, a TGI (DU-145 prostate) of 29.2 µM and a TGI (EKVX NSCLC) of 35.6 µM. It also gave a TGI (HCC-2998 colon) of 30.9 µM, a TGI (HCT-116 colon) of 23 µM and a TGI (HCT-15 colon) of 48.8 µM. It also gave a TGI (HL-60(TB) leukemia) of 31.8 µM, a TGI (HOP-62 NSCLC) of 32.5 µM and a TGI (HOP-92 NSCLC) of 42.8 µM. The TGI (HS 578T breast) was > 100 µM, the TGI (HT29 colon) was 32.7 µM and the TGI (IGROV1 ovarian) was 61.9 µM. The TGI (K-562 leukemia) was > 100 µM, the TGI (KM12 colon) was 38.3 µM and the TGI (LOX IMVI melanoma) was 30.8 µM. For the same compound, the TGI (M14 melanoma) was 29.4 µM, the TGI (MALME-3M melanoma) was 33.8 µM and the TGI (MCF7 breast) was 24.1 µM. For the same compound, the TGI (MDA-MB-231 breast) was 31.1 µM, the TGI (MDA-MB-435) was 44.9 µM and the TGI (MDA-N) was 54.3 µM. It also gave a TGI (MOLT-4 leukemia) of 64.9 µM, a TGI (NCI-H226 lung) of 34.6 µM and a TGI (NCI-H23 lung) of 56.2 µM. The TGI (NCI-H460 lung) was 29.7 µM, the TGI (NCI-H522 lung) was 33.8 µM and the TGI (NCI/ADR-RES ovarian) was > 100 µM. The TGI (OVCAR-3 ovarian) was 27.1 µM, the TGI (OVCAR-4 ovarian) was 55.1 µM and the TGI (OVCAR-5 ovarian) was 34.2 µM. It also gave a TGI (OVCAR-8 ovarian) of 90.2 µM, a TGI (PC-3 prostate) of 25.6 µM and a TGI (RPMI-8226 leukemia) of 35.2 µM. For the same compound, the TGI (RXF 393 renal) was 31.4 µM, the TGI (SF-268 CNS) was 45 µM and the TGI (SF-295 CNS) was 36.1 µM. It also gave a TGI (SF-539 CNS) of 46.1 µM, a TGI (SK-MEL-2 melanoma) of 28.9 µM and a TGI (SK-MEL-28 melanoma) of 45 µM. The TGI (SK-MEL-5 melanoma) was 22.1 µM, the TGI (SK-OV-3 ovarian) was 56.7 µM and the TGI (SN12C renal) was 39.4 µM. The TGI (SNB-19 CNS) was 26.8 µM, the TGI (SNB-75 CNS) was 45.1 µM and the TGI (SR leukemia) was 27.1 µM. For the same compound, the TGI (SW-620 colon) was > 100 µM, the TGI (T-47D breast) was 66 µM and the TGI (TK-10 renal) was 38.5 µM. It also gave a TGI (U251 CNS) of 25.7 µM, a TGI (UACC-257 melanoma) of 28.6 µM and a TGI (UACC-62 melanoma) of 25.6 µM. For the same compound, the TGI (UO-31 renal) was 26.6 µM.

In the case of `O=S1(=O)OCc2ccccc21`, the TGI (786-0 renal) is reported as > 100 µM, the TGI (A498 renal) is reported as > 100 µM and the TGI (A549 NSCLC) is reported as > 100 µM. For the same compound, the TGI (ACHN renal) was > 100 µM, the TGI (BT-549 breast) was > 100 µM and the TGI (CCRF-CEM leukemia) was > 100 µM. The TGI (COLO 205 colon) was > 100 µM, the TGI (DU-145 prostate) was > 100 µM and the TGI (EKVX NSCLC) was > 100 µM. The TGI (HCC-2998 colon) was > 100 µM, the TGI (HCT-116 colon) was > 100 µM and the TGI (HCT-15 colon) was > 100 µM. The TGI (HL-60(TB) leukemia) was > 100 µM, the TGI (HOP-62 NSCLC) was 42.3 µM and the TGI (HOP-92 NSCLC) was > 100 µM. The TGI (HS 578T breast) was > 100 µM, the TGI (HT29 colon) was > 100 µM and the TGI (IGROV1 ovarian) was > 100 µM. The TGI (K-562 leukemia) was > 100 µM, the TGI (KM12 colon) was > 100 µM and the TGI (M14 melanoma) was > 100 µM. For the same compound, the TGI (MALME-3M melanoma) was > 100 µM, the TGI (MCF7 breast) was > 100 µM and the TGI (MDA-MB-231 breast) was > 100 µM. For the same compound, the TGI (MDA-MB-435) was > 100 µM, the TGI (MDA-N) was > 100 µM and the TGI (MOLT-4 leukemia) was 78.9 µM. The TGI (NCI-H226 lung) was > 100 µM, the TGI (NCI-H23 lung) was > 100 µM and the TGI (NCI-H460 lung) was > 100 µM. The TGI (NCI-H522 lung) was > 100 µM, the TGI (NCI/ADR-RES ovarian) was > 100 µM and the TGI (OVCAR-3 ovarian) was > 100 µM. For the same compound, the TGI (OVCAR-4 ovarian) was > 100 µM, the TGI (OVCAR-5 ovarian) was > 100 µM and the TGI (OVCAR-8 ovarian) was > 100 µM. For the same compound, the TGI (PC-3 prostate) was > 100 µM, the TGI (RPMI-8226 leukemia) was > 100 µM and the TGI (RXF 393 renal) was > 100 µM. The TGI (SF-268 CNS) was > 100 µM, the TGI (SF-295 CNS) was > 100 µM and the TGI (SF-539 CNS) was > 100 µM. For the same compound, the TGI (SK-MEL-2 melanoma) was > 100 µM, the TGI (SK-MEL-28 melanoma) was > 100 µM and the TGI (SK-MEL-5 melanoma) was > 100 µM. The TGI (SK-OV-3 ovarian) was > 100 µM, the TGI (SN12C renal) was > 100 µM and the TGI (SNB-19 CNS) was > 100 µM. The TGI (SNB-75 CNS) was > 100 µM, the TGI (SW-620 colon) was > 100 µM and the TGI (T-47D breast) was > 100 µM. For the same compound, the TGI (TK-10 renal) was > 100 µM, the TGI (U251 CNS) was > 100 µM and the TGI (UACC-257 melanoma) was > 100 µM. For the same compound, the TGI (UACC-62 melanoma) was > 100 µM and the TGI (UO-31 renal) was > 100 µM.
